How the values were obtained:
[1] = molecular target: T1, Sodium/glucose cotransporter 2 (Homo sapiens) (UniProt P31639); experiment: Inhibition of human SGLT2 expressed in COS1 cells assessed as [14C]methyl-alpha-D-glucopyranoside uptake at 50 uM; type: cell-based; conditions: COS-1
T1 sequence (whole entry): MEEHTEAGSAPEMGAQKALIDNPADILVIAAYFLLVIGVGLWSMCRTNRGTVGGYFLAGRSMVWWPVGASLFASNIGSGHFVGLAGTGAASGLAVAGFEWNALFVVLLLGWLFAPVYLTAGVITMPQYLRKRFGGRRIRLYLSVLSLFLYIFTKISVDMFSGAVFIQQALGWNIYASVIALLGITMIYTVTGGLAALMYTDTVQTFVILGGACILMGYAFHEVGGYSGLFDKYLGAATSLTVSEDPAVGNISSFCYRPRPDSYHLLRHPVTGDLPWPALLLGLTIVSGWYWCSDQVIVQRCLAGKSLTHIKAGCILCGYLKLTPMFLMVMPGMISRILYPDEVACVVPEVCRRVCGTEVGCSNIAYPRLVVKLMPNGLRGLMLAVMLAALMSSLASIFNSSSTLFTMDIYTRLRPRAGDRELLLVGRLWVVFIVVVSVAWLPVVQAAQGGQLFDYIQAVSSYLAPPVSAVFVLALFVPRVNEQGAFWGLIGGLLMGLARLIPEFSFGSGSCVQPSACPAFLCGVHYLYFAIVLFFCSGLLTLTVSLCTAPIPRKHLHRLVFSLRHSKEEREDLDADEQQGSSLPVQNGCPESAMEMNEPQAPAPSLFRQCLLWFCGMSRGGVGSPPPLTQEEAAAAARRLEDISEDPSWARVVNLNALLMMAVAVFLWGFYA

[2] = molecular target: T2, Sodium/glucose cotransporter 1 (Homo sapiens) (UniProt P13866); experiment: Inhibition of human SGLT1 expressed in COS1 cells assessed as [14C]methyl-alpha-D-glucopyranoside uptake at 50 uM; type: cell-based; conditions: COS-1
T2 sequence (whole entry): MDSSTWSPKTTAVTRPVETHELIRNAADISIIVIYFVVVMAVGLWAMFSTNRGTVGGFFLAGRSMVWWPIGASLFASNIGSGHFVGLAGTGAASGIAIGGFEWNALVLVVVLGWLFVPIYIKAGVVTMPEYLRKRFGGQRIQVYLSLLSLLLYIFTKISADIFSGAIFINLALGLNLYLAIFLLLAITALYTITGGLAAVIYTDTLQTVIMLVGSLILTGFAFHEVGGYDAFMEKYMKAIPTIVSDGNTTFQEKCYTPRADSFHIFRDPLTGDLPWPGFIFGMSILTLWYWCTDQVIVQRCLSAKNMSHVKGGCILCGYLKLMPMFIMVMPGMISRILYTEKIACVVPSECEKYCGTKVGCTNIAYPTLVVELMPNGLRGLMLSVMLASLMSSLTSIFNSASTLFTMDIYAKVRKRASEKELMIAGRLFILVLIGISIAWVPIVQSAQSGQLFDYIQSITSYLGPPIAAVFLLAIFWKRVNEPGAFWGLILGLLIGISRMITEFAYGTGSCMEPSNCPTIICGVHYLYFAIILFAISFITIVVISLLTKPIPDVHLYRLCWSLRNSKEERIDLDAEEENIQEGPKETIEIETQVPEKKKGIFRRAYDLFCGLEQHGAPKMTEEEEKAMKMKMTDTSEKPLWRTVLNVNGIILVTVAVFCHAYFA

inhibition [1] [%] | inhibition [2] [%] | Structure (SMILES)
45.3 | 31.4 | O[C@H]1CCCCc2ccc(OCc3ccccc3)c(c2)Oc2ccc(cc2)CC1
-9.7 | -1.7 | O=C(Oc1ccc2cc1Oc1ccc(cc1)CC[C@@H](OC(=O)c1ccccc1)CCCC2)c1ccccc1
33.9 | 92.7 | Oc1ccc2cc1Oc1ccc(cc1)CC[C@H](O)CCCC2
34.3 | 20.6 | CC(C)C(=O)Oc1ccc2cc1Oc1ccc(cc1)CC[C@@H](OC(=O)C(C)C)CCCC2
67.8 | 44.9 | O=C1CCCCc2ccc(O)c(c2)Oc2ccc(cc2)CC1
62.4 | 77.9 | COc1ccc2cc1Oc1ccc(cc1)CCCCC(O)CC2 (stereo not drawn)
16.8 | 15.7 | O=C(Oc1ccc2cc1Oc1ccc(cc1)CC[C@@H](OC(=O)c1ccc(Cl)cc1)CCCC2)c1ccc(Cl)cc1
76.9 | 46.5 | O=C1CCc2ccc(cc2)Oc2cc(ccc2O)CCCCN1
15.3 | 73.7 | Oc1ccc2cc1Oc1ccc(cc1)C/C=C/CCCC2
53.3 | 44.6 | COc1ccc2cc1Oc1ccc(cc1)CCC(=O)CCCC2
15 | 18.3 | OC[C@H]1O[C@H](Oc2ccc3cc2Oc2ccc(cc2)CC[C@@H](O)CCCC3)[C@H](O)[C@@H](O)[C@@H]1O
19.8 | 3.9 | O=C1CCCCc2ccc(OCc3ccccc3)c(c2)Oc2ccc(cc2)CC1
67.5 | 68.8 | CC(=O)Oc1ccc2cc1Oc1ccc(cc1)CC[C@@H](OC(C)=O)CCCC2
77.4 | 96.3 | Oc1ccc2cc1Oc1ccc(cc1)CCCCCCC2
65.4 | 37.7 | COc1ccc2cc1Oc1ccc(cc1)CCCCC(=O)CC2
45.2 | 1.4 | O=C1CCCCc2ccc(OC(=O)c3ccccc3)c(c2)Oc2ccc(cc2)CC1
54.2 | 94.2 | Oc1ccc2cc1Oc1ccc(cc1)CCCC[C@H](O)CC2
29.5 | 67.8 | COc1ccc2cc1Oc1ccc(cc1)CC[C@@H](O)CCCC2
19.3 | 13.5 | CC(=O)Oc1ccc2cc1Oc1ccc(cc1)CCC(=O)CCCC2

— ChEMBL document CHEMBL1159054, “Cyclic diarylheptanoids as Na+-glucose cotransporter (SGLT) inhibitors from Acer nikoense” (Bioorg Med Chem Lett, 2010)
